Assay results taken from patent US11172673B2, “Platelet storage methods and compositions for same” (Children's Hospital Medical Center, priority 2014, dated 2021).
“Also recorded” adds a separate entry of the source.

Legend:
[1] = system: C57Bl/6 murine carboxyfluorescein-labeled platelets; experiment: Recovery and survival of refrigerated platelets after infusion in congenic mice; type: in vivo; details: for Platelet 24-hour recovery in vivo / Platelet survival in vivo: refrigerated platelets stored at 0° C.; for Platelet 24-hour recovery in vivo: FIG. 6B; for Platelet survival in vivo: FIG. 6C
Procedure: FIG. 6C-FIG. 6D. Platelet recovery at different time points. Donor platelets were stored at room temperature (squares) or pretreated with a mixed Rho GTPase inhibitors (50 μM NSC23766, 10 μM CASIN and/or 75 μM G04) or no drug (control). Data are presented as mean SD. *p<0.01 (Anova test with Bonferroni correction, between refrigerated with no inhibitor and refrigerated with triple inhibitor combination).
FIG. 7 depicts effects of Rho GTPase inhibitor combinations on platelet survival upon transfusion. Platelet recovery at different time points is shown. Donor platelets were stored at room temp (squares) or pretreated with a mixed Rho GPase inhibitors (50 uM NSC23766, 10 uM CASIN and/or 75 uM G04) or no drug (Ctrl). Data are presented as mean±SD. *p<0.01 (Anova test with Bonferroni correction, between refrigerated with no inhibitor and refrigerated with triple inhibitor combination).
A combination of CASIN (10 μM), G04 (75 μM) and/or NSC23766 were used in C57Bl/6 murine carboxyfluorescein-labeled platelets incubated at 0° C. or 5° C. for 3.5 hours. After re-warming, platelets were infused in 5 congenic mice (per group) and compared with control (room temperature stored) and refrigerated, untreated platelet group (FIG. 7). […] In a second experiment focused on the specific combinations with more activity to reverse the survival impairment associated with the use of Rho GTPase inhibitors, we analyzed the 24-hour recovery (%) and survival (hours) of platelets that had been stored in presence of several combinations of drugs (FIG. 6A).

platelets [2] = experiment: Platelet actin filopodia structure / shape change, rhodamine-phalloidin staining; type: cell-based, human; details: Casin 10 μM, platelets adhered to coated collagen surface, FIG. 3C
Procedure: FIG. 3C. Fibrinogen mediated platelet actin filopedia structure is blocked by Casin (10 μM). Rhodamine conjugated phalloidin-staining of platelets adhered to coated collagen surface.
(§1) Applicant has tested the ability of three chemical inhibitors, CASIN, NSC23766 and G04, targeting Cdc42, Rac1 and RhoA, respectively (FIG. 2), to inhibit the activity of the GTPases and the consequent cytoskeleton-dependent functions of human platelets. A rationally developed inhibitor of Cdc42 with activity on activation by guanine nucleotide exchange factors is CASIN (29, Nature Biotech under revision). CASIN was recently discovered by Zheng group as a small molecule that recognizes a pocket domain that specifically blocks the ability of GEF interaction with Cdc42 (FIG. 3A). CASIN is found to suppress of hematopoietic stem cell aging through its specific Cdc42 inhibitory activity (29). In platelets, it inhibits Cdc42 activation (FIG. 3B) and prevents collagen-induced platelet shape changes (FIG. 3C).

platelets [3] = experiment: Collagen induced platelet aggregation; type: cell-based, human; details: for Reversibility of aggregation block upon a wash of the inhibitor treated platelets: up to 30 μM Casin, FIG. 3D lower panel
Procedure: FIG. 3D. Collagen induced aggregation is blocked by 10 μM Casin (upper panel) and is reversible (up to 30 μM Casin) upon a wash of the inhibitor treated platelets (lower panel).
FIG. 4D. Collagen induced aggregation is blocked by NSC23766 in a dose-dependent fashion.
FIG. 4E. Inhibition of collagen induced platelet aggregation by NSC23766 (50 μM) is reversible upon a wash of the inhibitor treated platelets.
(§2) FIG. 5D. Collagen induced aggregation is inhibited by G04 (upper panel). Similar to collagen, thrombin induced aggregation (data not shown) is blocked by G04 in a dose-dependent fashion (upper panel) and is reversible upon a wash of the inhibitor treated platelets (lower panel).
as §1, with “3C). […]” for “3C).”
(§3) Finally, G04/Rhosin was also developed by us as a RhoA GTPase activation site inhibitor that transiently and specifically blocks RhoA activity and RhoA-mediated signaling functions (36, 37). […] Effect by collagen or thrombin is reversible (FIG. 5D, lower).

hematopoietic stem cell = details: cited from earlier work
Cdc42 = molecular target: T1, Cdc42 (Homo sapiens, UniProt P60953); experiment: Cdc42 activation in platelets, GST-PAK pulldown assay; type: cell-based; details: Casin 10 μM, FIG. 3B
T1 construct: endogenous in cells; host or cells: human platelets
Procedure: FIG. 3B. Collagen-induced Cdc42 activation is inhibited by Casin (10 μM) in a GST-PAK pulldown assay.
as §1

platelets [4] = experiment: Platelet actin lamellopodia structure / spreading, rhodamine-phalloidin staining; type: cell-based, human; details: for Fibrinogen-mediated platelet actin lamellopodia structure: NSC23766 50 μM, FIG. 4C
Procedure: FIG. 4C. Fibrinogen-mediated platelet actin lamellopodia structure is blocked by NSC23 766 (50 μM). Rhodamine conjugated phalloidin-staining of platelets adhered to coated collagen surface.
FIG. 5C. U46629 ([…]/Fibrinogen (3 μM)-mediated platelet actin lamellopodia structure is blocked by G04 (30 μM). Rhodamine conjugated phalloidin-staining of platelets adhered to coated collagen surface.
Similarly, Applicant has identified an inhibitor of Rac, NSC23766 (30-34), with an ability to impair Rac1 activation by multiple activating signals which may be crucial in platelet signaling associated with GpIb/GpX (35). NSC23766 was discovered in a structure-based virtual screening of compounds that fit into a surface groove of Rac 1 known to be critical for guanine nucleotide exchange factor specification (34) (FIG. 4A).
as §3

RhoA [5] = molecular target: T2, RhoA (Homo sapiens, UniProt P61586); experiment: Collagen-induced RhoA activity in platelets, GST-Rhotekin pulldown assay; type: cell-based; set-up: endogenous in cells; host or cells: human platelets; details: G04 50 μM, FIG. 5B
Procedure: FIG. 5B. Collagen-induced RhoA activity is inhibited by Go4 (50 μM) in a GST-Rhotekin pulldown assay.
as §3
Target sequence in this assay (P61586 whole entry): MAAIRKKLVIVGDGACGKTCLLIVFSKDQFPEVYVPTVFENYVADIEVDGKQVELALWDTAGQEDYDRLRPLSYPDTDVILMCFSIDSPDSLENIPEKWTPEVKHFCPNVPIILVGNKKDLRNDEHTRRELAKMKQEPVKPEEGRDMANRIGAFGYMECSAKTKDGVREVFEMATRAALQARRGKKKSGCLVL

RhoA [6] = molecular target: T2, RhoA; details: binding to surface area sandwiching Trp58 of RhoA; cited from earlier work
Target sequence in this assay (P61586 whole entry, species assumed): as the sequence (P61586 whole entry) above

platelets [7] = experiment: Thrombin induced platelet aggregation; type: cell-based, human
Description: as §2, §3

RhoA [8] = molecular target: T2, RhoA; details: cited from earlier work
Target sequence in this assay (P61586 whole entry, species assumed): as the sequence (P61586 whole entry) above

T1 sequence (P60953 whole entry): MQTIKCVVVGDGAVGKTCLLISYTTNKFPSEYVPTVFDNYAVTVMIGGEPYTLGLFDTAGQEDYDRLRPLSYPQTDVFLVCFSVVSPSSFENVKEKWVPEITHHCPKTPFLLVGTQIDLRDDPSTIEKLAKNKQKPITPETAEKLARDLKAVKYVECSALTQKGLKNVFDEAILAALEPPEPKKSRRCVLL

OCCNC1CCCc2c1[nH]c1ccc(-c3ccccc3)cc21 (stereo not drawn) [CASIN]
Platelet 24-hour recovery in vivo [1]: did not improve | Platelet survival in vivo [1]: did not improve | Platelet actin filopodia structure / collagen-induced platelet shape changes (platelets [2]): prevents | Platelet actin filopodia structure / collagen-induced platelet shape changes (platelets [2]; listed as Casin): blocked | Collagen induced aggregation (platelets [3]; 10 μM Casin, FIG. 3D upper panel): prevention | Collagen induced aggregation (platelets [3]; 10 μM Casin, FIG. 3D upper panel, listed as Casin): blocked | Reversibility of aggregation block upon a wash of the inhibitor treated platelets (platelets [3]): can be reversed | Reversibility of aggregation block upon a wash of the inhibitor treated platelets (platelets [3]; listed as Casin): reversible | Hematopoietic stem cell aging (hematopoietic stem cell): suppress | Collagen-induced Cdc42 activation (Cdc42): inhibits | Collagen-induced Cdc42 activation (Cdc42; listed as Casin): inhibited

CCN(CC)CCCC(C)Nc1nc(C)cc(Nc2ccc3nc(C)cc(N)c3c2)n1 (racemic) [NSC23766]
Fibrinogen-mediated platelet actin lamellopodia structure (platelets [4]): effectively block | Fibrinogen-mediated platelet actin lamellopodia structure (platelets [4]; listed as NSC23 766): blocked | Reversal of the survival deficiency (storage lesion) induced by refrigerated storage ([1]; platelets incubated at 0° C. or 5° C. for 3.5 hours, infused in congenic mice, 50 uM NSC23766, 10 uM CASIN and/or 75 uM G04, FIG. 7): did not result in significant reversal | Reversibility of inhibition of collagen induced platelet aggregation upon a wash (platelets [3]; NSC23766 50 μM, FIG. 4E): reversible | Collagen induced aggregation (platelets [3]; NSC23766, dose-dependent fashion, FIG. 4D): reversibly inhibits; also recorded: blocked

N[C@H](Cc1c[nH]c2ccccc12)C(=O)N/N=C/c1ccc2nccnc2c1 [G04]
U46629/Fibrinogen-mediated platelet actin lamellopodia structure (platelet spreading) (platelets [4]; G04 30 μM, U46629 10 mM, Fibrinogen 3 μM, FIG. 5C): inhibits; also recorded: blocked | Collagen-induced RhoA activity (RhoA [5]): specifically inhibits | Collagen-induced RhoA activity (RhoA [5]; listed as Go4): inhibited | Kd (RhoA [6]): submicromolar | Platelet 24-hour recovery in vivo [1]: did not improve | Platelet survival in vivo [1]: did not improve | Thrombin induced aggregation (platelets [7]; G04, dose-dependent fashion, data not shown): blocked | Reversibility of block of thrombin induced aggregation upon a wash (platelets [7]; G04, FIG. 5D lower panel): reversible | Collagen induced aggregation (platelets [3]; G04, FIG. 5D upper panel): inhibited | Reversibility of effect on collagen induced aggregation (platelets [3]; G04, wash of inhibitor treated platelets, FIG. 5D lower): reversible | GEF-catalyzed RhoA activation (RhoA [8]): effectively inhibits
